Reference: patent publication US8207176B2 (Glaxo Group Limited, priority 2005, dated 2012)
Where a name gives a salt, the structure may show the parent alone.

System: influx of neutrophils to the lung in LPS-challenged rats
Test: Rat LPS neutrophilia model
Format: in vivo
Details: intratracheal, LPS aerosol 100 ug/ml 15 min, lavage 4 hours later, in at least one of the range of conditions tested, significant p<0.05, nonsignificant p>0.05
Protocol: The effect of compounds on the influx of neutrophils to the lung in LPS-challenged rats is evaluated as follows. The test compound is suspended in one of the following solutions: 0.5% tween 80/PBS, 0.5% tween 80/saline, 10% EtOH/saline (with pH adjusted to 2.0, or 8.0 with HCl, or unadjusted), Saline @ pH 2.0, 6.5 or 8.0, 0.5% Tragacanth, 1% DMSO/20% Encapsin/Saline, or acidified 5% Tragacanth. The suspension process may be aided by the use of a glass homogenizer. For intratracheal administration, the animals are anesthetized with inhaled isoflurane and placed in a supine position, the trachea is intubated with a steel gavage needle (1.5 inch, 22 gauge, small ball) or a Penn-Century Microsprayer Aerosolizer (model IA-IB) and 200 ul of dosing solution is delivered. The animals are visually monitored during the recovery process, which typically occurs within two minutes. It is noted that the test compounds may be alternatively administered via the microsprayer in a dry powder blend with a suitable excipient, such as lactose.
Rats treated with compound or vehicle (15 min-24 hours pretreatment) are exposed to an LPS aerosol (100 ug/ml) for 15 min. Four hours later the rats are euthanized with pentobarbital (100 mg/kg, i.p.) and the airways are lavaged with 5 washes of 5 ml of phosphate buffered saline. The harvested cells are stained (Diffquick) and counted to determine total and differential cell data. […] Inhibition of neutrophil levels relative to no compound controls is calculated based on the differential counts.
The data is obtained as % inhibition using a particular concentration and pretreat time.

| SMILES | inhibition of neutrophilia (neutrophil levels in lung lavage relative to no compound controls) |
| --- | --- |
| Cc1ccc(C(=O)Nc2ccc(F)cc2)cc1-c1nc(N(C)CCN(C)C)nc2c1ccc(=O)n2-c1c(F)cccc1F [Example 99, 3-{8-(2,6-difluorophenyl)-2-[[2-(dimethylamino)ethyl](methyl)amino]-7-oxo-7,8-dihydropyrido[2,3-d]pyrimidin-4-yl}-N-(4-fluorphenyl)-4-methylbenzamide] | statistically nonsignificant inhibition |
| CCN(CC)CCCNc1nc(-c2cc(C(=O)NCC3CC3)ccc2C)c2ccc(=O)n(-c3c(F)cccc3F)c2n1 [Example 138, N-(cyclopropylmethyl)-3-[2-{[3-(diethylamino)propyl]amino}-8-(2,6-difluorophenyl)-7-oxo-7,8-dihydropyrido[2,3-d]pyridin-4-yl]-4-methylbenzamide trifluoroacetate] | statistically nonsignificant inhibition |
| CCCCNC(=O)c1ccc(C)c(-c2nc(N3CCC(N4CCC(C)CC4)CC3)nc3c2ccc(=O)n3-c2c(F)cccc2F)c1 [Example 167, N-butyl-3-[8-(2,6-difluorophenyl)-2-(4-methyl-1,4′-bipiperidin-1′-yl)-7-oxo-7,8-dihydropyrido[2,3-d]pyrimidin-4-yl]-4-methylbenzamide] | statistically significant inhibition |
| CCN(CC)CCCNc1nc(-c2cc(C(=O)NCCF)ccc2C)c2ccc(=O)n(-c3c(F)cccc3F)c2n1 [Example 133, 3-[2-{[3-(diethylamino)propyl]amino}-8-(2,6-difluorophenyl)-7-oxo-7,8-dihydropyrido[2,3-d]pyrimidin-4-yl]-N-(2-fluoroethyl)-4-methylbenzamidetrifluoroacetate] | statistically significant inhibition |
| CCCNC(=O)c1cc(F)c(C)c(-c2nc(NCCCN(CC)CC)nc3c2ccc(=O)n3-c2c(F)cccc2F)c1 [Example 181, 3-[2-{[3-(diethylamino)propyl]amino}-8-(2,6-difluorophenyl)-7-oxo-7,8-dihydropyrido[2,3-d]-pyrimidin-4-yl]-5-fluoro-4-methyl-N-propylbenzamide] | statistically nonsignificant inhibition |
| Cc1ccc(C(=O)Nc2nccs2)cc1-c1nc(NCCNC(C)C)nc2c1ccc(=O)n2-c1c(F)cccc1F [Example 103, 3-[8-(2,6-difluorophenyl)-2-({2-[(1-methylethyl)amino]ethyl}amino)-7-oxo-7,8-dihydropyrido[2,3-d]pyrimidin-4-yl]-4-methyl-N-1,3-thiazol-2-ylbenzamide] | statistically significant inhibition |
| CNCCNc1nc(-c2cc(C(=O)Nc3ccc(F)cc3)ccc2C)c2ccc(=O)n(-c3c(F)cccc3F)c2n1 [Example 60, 3-(8-(2,6-difluorophenyl)-2-{[2-(methylamino)ethyl]amino}-7-oxo-7,8-dihydropyrido[2,3-d]pyrimidin-4-yl)-N-(4-fluorophenyl)-4-methylbenzamide] | statistically significant inhibition |
| CCN(CC)CCCNc1nc(-c2cc(C(=O)Nc3ccc(F)cc3)ccc2C)c2ccc(=O)n(-c3c(F)cccc3F)c2n1 [Example 160, 3-[2-{[3-(diethylamino)propyl]amino}-8-(2,6-difluorophenyl)-7-oxo-7,8-dihydropyrido[2,3-d]pyrimidin-4-yl]-N-(4-fluorophenyl)-4-methylbenzamide] | statistically significant inhibition |
| Cc1ccc(C(=O)NC(C)C)cc1-c1nc(N2CCC(N)CC2)nc2c1ccc(=O)n2-c1c(F)cccc1F [Example 68, 3-[2-(4-amino-1-piperidinyl)-8-(2,6-difluorophenyl)-7-oxo-7,8-dihydropyrido[2,3-d]pyrimidin-4-yl]-4-methyl-N-(1-methylethyl)benzamide] | statistically significant inhibition |
| Cc1ccc(C(=O)NC2CC2)cc1-c1nc(N2CCC(N3CCC(C)CC3)CC2)nc2c1ccc(=O)n2-c1c(F)cccc1F [Example 178, N-cyclopropyl-3-[8-(2,6-difluorophenyl)-2-(4-methyl-1,4′-bipiperidin-1′-yl)-7-oxo-7,8-dihydropyrido[2,3-d]pyrimidin-4-yl]-4-methylbenzamide] | statistically nonsignificant inhibition |
| CCN(CC)CCCNc1nc(-c2cc(C(=O)N[C@@H](C)c3ccccc3)ccc2C)c2ccc(=O)n(-c3c(F)cccc3F)c2n1 [Example 149, 3-[2-{[3-(diethylamino)propyl]amino}-8-(2,6-difluorophenyl)-7-oxo-7,8-dihydropyrido[2,3-d]pyrimidin-4-yl]-4-methyl-N-[(1S)-1-phenylethyl]benzamide] | inactive |
| Cc1ccc(C(=O)Nc2ccc(F)cc2)cc1-c1nc(N2CCC(N3CCC(C)CC3)CC2)nc2c1ccc(=O)n2-c1c(F)cccc1F [Example 174, 3-[8-(2,6-difluorophenyl)-2-(4-methyl-1,4′-bipiperidin-1′-yl)-7-oxo-7,8-dihydropyrido[2,3-d]pyrimidin-4-yl]N-(4-fluorophenyl)-4-methylbenzamide] | inactive |

Target: T1, Recombinant human p38α (MKK6-activated) (Homo sapiens, UniProt Q16539)
T1 construct: His; made in house
T1 sequence (Q16539 whole entry): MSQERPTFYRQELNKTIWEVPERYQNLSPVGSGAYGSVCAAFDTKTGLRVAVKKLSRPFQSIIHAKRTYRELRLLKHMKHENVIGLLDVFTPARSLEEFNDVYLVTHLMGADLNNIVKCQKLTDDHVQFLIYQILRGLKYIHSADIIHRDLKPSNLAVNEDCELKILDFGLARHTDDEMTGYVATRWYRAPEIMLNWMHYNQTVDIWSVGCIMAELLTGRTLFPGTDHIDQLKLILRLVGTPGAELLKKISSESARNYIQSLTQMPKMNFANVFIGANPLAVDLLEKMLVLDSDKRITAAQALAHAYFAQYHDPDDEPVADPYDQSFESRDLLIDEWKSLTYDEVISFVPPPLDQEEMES
Test: Time-resolved fluorescence resonance energy transfer (TR-FRET) kinase assay (standard or low volume)
Format: biochemical
Set-up: key: Compounds are considered active in this assay if they demonstrate a pIC50 of greater than 4.6 up to about a pIC50 of greater than 10.0
Details: MKK6-activated p38α 100 pM, GST-ATF2 400 nM, 120 minutes at room temperature; either assay format
Protocol: It is noted that there are two assay formats shown above for the Fluorescence anisotropy kinase binding assay. The only difference between these two assays is the volume used and the plate type. […] The results described herein may have been performed in either assay format and are not differentiated as to which. […] TR-FRET Assay Time-Resolved Fluorescence Resonance Energy Transfer Kinase Standard Assay Recombinant human p38α was expressed as a His-tagged protein. To activate this protein, 3 μM unactivated p38α was incubated in 200 mM Hepes pH 7.4, 625 mM NaCl, 1 mM DTT with 27 nM active MKK6 (Upstate), 1 mM ATP and 10 mM MgCl2 The activity of the MKK6-activated p38α was assessed using a time-resolved fluorescence resonance energy transfer (TR-FRET) assay. Biotinylated-GST-ATF2 (residues 19-96, 400 nM final), ATP ([…]) and MgCl2 (5 mM final) in assay buffer (40 mM HEPES pH 7.4, 1 mM DTT) were added to wells containing 1 ul of various concentrations of compound or DMSO vehicle (3% final) in NUNC 384 well black plate. The reaction was initiated by the addition of MKK6-activated p38 (100 pM final) to give a total volume of 30 ul. The reaction was incubated for 120 minutes at room temperature, then terminated by the addition of 15 μl of 100 mM EDTA pH 7.4. Detection reagent (15 μl) in buffer (100 mM HEPES pH 7.4, 150 mM NaCl, 0.1% w/v BSA, 1 mM DTT) containing antiphosphothreonine-ATF2-71 polyclonal antibody (Cell Signalling Technology, Beverly Mass., USA) labelled with W-1024 europium chelate (Wallac OY, Turku, Finland), and APC-labelled streptavidin (Prozyme, San Leandro, Calif., USA) was added and the reaction was further incubated for 60 minutes at room temperature. The degree of phosphorylation of GST-ATF2 was measured using a Packard Discovery plate reader (Perkin-Elmer Life Sciences, Pangbourne, UK) as a ratio of specific 665 nm energy transfer signal to reference europium 620 nm signal. Time-Resolved Fluorescence Resonance Energy Transfer Kinase Low Volume Assay Recombinant human p38α was expressed as a His-tagged protein. To activate this protein, 3 μM unactivated p38α was incubated in 200 mM Hepes pH7.4, 625 mM NaCl, 1 mM DTT with 27 nM active MKK6 (Upstate), 1 mM ATP and 10 mM MgCl2 The activity of the MKK6-activated p38α was assessed using a time-resolved fluorescence resonance energy transfer (TR-FRET) assay. Biotinylated-GST-ATF2 (residues 19-96, 400 nM final), ATP (125 μM final) and MgCl2 ([…]) in assay buffer (40 mM HEPES pH 7.4, 1 mM DTT) were added to wells containing 0.1 μl of various concentrations of compound or DMSO vehicle (1.7% final) in Greiner low volume 384 well black plate. The reaction was initiated by the addition of MKK6-activated p38α (100 pM final) to give a total volume of 6 μl. The reaction was incubated for 120 minutes at room temperature, then terminated by the addition of 3 μl of detection reagent in buffer (100 mM HEPES pH 7.4, 150 mM NaCl, 0.1% w/v BSA, 1 mM DTT, 100 mM EDTA) containing antiphosphothreonine-ATF2-71 polyclonal antibody (Cell Signalling Technology, Beverly Mass., USA) labelled with W-1024 europium chelate (Wallac OY, Turku, Finland), and APC-labelled streptavidin (Prozyme, San Leandro, Calif., USA). The reaction was further incubated for 60 minutes at room temperature. The degree of phosphorylation of GST-ATF2 was measured using a BMG Rubystar plate reader (BMG, UK) as a ratio of specific 665 nm energy transfer signal to reference europium 620 nm signal. It is noted that there are two assay formats shown above for the Time-resolved fluorescence resonance energy transfer kinase assay. The only difference between these two assays is the volume used and the plate type. […] The results described herein may have been performed in either assay format and are not differentiated as to which. […] For purposes herein the HTRF assay and the Fluorescence anisotropy kinase binding assay: […]

| SMILES | pIC50, reported as active |
| --- | --- |
| CCN(CC)CCCNc1nc(-c2cccc(C(=O)O)c2)c2ccc(=O)n(-c3c(F)cccc3F)c2n1 [193(a), 3-[2-{[3-(diethylamino)propyl]amino}-8-(2,6-difluorophenyl)-7-oxo-7,8-dihydropyrido[2,3-d]pyrimidin-4-yl]benzoic acid] | active |
